Source: PubChem BioAssay (NCI)
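Compound exposure: 48 hours, 5 concentrations, 96-well plates. GI50 is the concentration that inhibits growth by half. TGI denotes the concentration required for complete inhibition of growth.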

Legend:
Test in all cases: DTP human tumour cell line panel, 48 h
NCI-H23 lung = test system: NCI-H23 lung
UACC-62 melanoma = test system: UACC-62 melanoma
HOP-92 NSCLC = test system: HOP-92 NSCLC
UACC-257 melanoma = test system: UACC-257 melanoma
A549 NSCLC = test system: A549 NSCLC
HL-60(TB) leukemia = test system: HL-60(TB) leukemia
UO-31 renal = test system: UO-31 renal
NCI/ADR-RES ovarian = test system: NCI/ADR-RES ovarian
COLO 205 colon = test system: COLO 205 colon
ACHN renal = test system: ACHN renal
SF-539 CNS = test system: SF-539 CNS
KM12 colon = test system: KM12 colon
SK-OV-3 ovarian = test system: SK-OV-3 ovarian
HCC-2998 colon = test system: HCC-2998 colon
MALME-3M melanoma = test system: MALME-3M melanoma
SF-295 CNS = test system: SF-295 CNS
PC-3 prostate = test system: PC-3 prostate
EKVX NSCLC = test system: EKVX NSCLC
BT-549 breast = test system: BT-549 breast
IGROV1 ovarian = test system: IGROV1 ovarian
RXF 393 renal = test system: RXF 393 renal
HOP-62 NSCLC = test system: HOP-62 NSCLC
NCI-H522 lung = test system: NCI-H522 lung
TK-10 renal = test system: TK-10 renal
LOX IMVI melanoma = test system: LOX IMVI melanoma
HT29 colon = test system: HT29 colon
HS 578T breast = test system: HS 578T breast
CAKI-1 renal = test system: CAKI-1 renal
OVCAR-5 ovarian = test system: OVCAR-5 ovarian
OVCAR-3 ovarian = test system: OVCAR-3 ovarian
K-562 leukemia = test system: K-562 leukemia
SNB-75 CNS = test system: SNB-75 CNS
SN12C renal = test system: SN12C renal
MDA-MB-435 = test system: MDA-MB-435
SK-MEL-2 melanoma = test system: SK-MEL-2 melanoma
U251 CNS = test system: U251 CNS
NCI-H226 lung = test system: NCI-H226 lung
786-0 renal = test system: 786-0 renal
HCT-116 colon = test system: HCT-116 colon
OVCAR-4 ovarian = test system: OVCAR-4 ovarian
MOLT-4 leukemia = test system: MOLT-4 leukemia
SF-268 CNS = test system: SF-268 CNS
OVCAR-8 ovarian = test system: OVCAR-8 ovarian
DU-145 prostate = test system: DU-145 prostate
T-47D breast = test system: T-47D breast
NCI-H460 lung = test system: NCI-H460 lung
M14 melanoma = test system: M14 melanoma
MDA-MB-231 breast = test system: MDA-MB-231 breast
A498 renal = test system: A498 renal
SW-620 colon = test system: SW-620 colon
MCF7 breast = test system: MCF7 breast
SK-MEL-28 melanoma = test system: SK-MEL-28 melanoma
CCRF-CEM leukemia = test system: CCRF-CEM leukemia
RPMI-8226 leukemia = test system: RPMI-8226 leukemia
HCT-15 colon = test system: HCT-15 colon
SK-MEL-5 melanoma = test system: SK-MEL-5 melanoma
SNB-19 CNS = test system: SNB-19 CNS
SR leukemia = test system: SR leukemia

For `Cc1sc(C(=O)c2cncnc2N[C@@H]2C[C@H](COS(N)(=O)=O)[C@@H](O)C2)cc1[C@@H]1NCCc2ccc(Cl)cc21`, the GI50 (NCI-H23 lung) was 11.8 µM, the TGI (NCI-H23 lung) was 27 µM and the GI50 (UACC-62 melanoma) was 3.75 µM. For the same compound, the TGI (UACC-62 melanoma) was 21.7 µM, the GI50 (HOP-92 NSCLC) was 0.0783 µM and the TGI (HOP-92 NSCLC) was 12.9 µM. The GI50 (UACC-257 melanoma) was 0.0793 µM, the TGI (UACC-257 melanoma) was 20.1 µM and the GI50 (A549 NSCLC) was 2.21 µM. It also gave a TGI (A549 NSCLC) of 22.3 µM, a GI50 (HL-60(TB) leukemia) of 0.294 µM and a TGI (HL-60(TB) leukemia) of 13.2 µM. For the same compound, the GI50 (UO-31 renal) was 3.66 µM, the TGI (UO-31 renal) was 24.6 µM and the GI50 (NCI/ADR-RES ovarian) was 51.8 µM. It also gave a TGI (NCI/ADR-RES ovarian) greater than 100 µM, a GI50 (COLO 205 colon) of 0.041 µM and a TGI (COLO 205 colon) of 11.8 µM. For the same compound, the GI50 (ACHN renal) was 11.8 µM, the TGI (ACHN renal) was 25.7 µM and the GI50 (SF-539 CNS) was 1.48 µM. For the same compound, the TGI (SF-539 CNS) was 20.3 µM, the GI50 (KM12 colon) was 13.1 µM and the TGI (KM12 colon) was 28.3 µM. It also gave a GI50 (SK-OV-3 ovarian) of 2.65 µM, a TGI (SK-OV-3 ovarian) of 25.2 µM and a GI50 (HCC-2998 colon) of 0.922 µM. For the same compound, the TGI (HCC-2998 colon) was 19.9 µM, the GI50 (MALME-3M melanoma) was 0.0394 µM and the TGI (MALME-3M melanoma) was 15.5 µM. The GI50 (SF-295 CNS) was 11 µM, the TGI (SF-295 CNS) was 23.2 µM and the GI50 (PC-3 prostate) was 5.44 µM. The TGI (PC-3 prostate) was 24.5 µM, the GI50 (EKVX NSCLC) was 8.88 µM and the TGI (EKVX NSCLC) was 25.7 µM. For the same compound, the GI50 (BT-549 breast) was 12.8 µM, the TGI (BT-549 breast) was 26.6 µM and the GI50 (IGROV1 ovarian) was 11 µM. For the same compound, the TGI (IGROV1 ovarian) was 25.7 µM, the GI50 (RXF 393 renal) was 6.35 µM and the TGI (RXF 393 renal) was 22 µM. The GI50 (HOP-62 NSCLC) was 12.9 µM, the TGI (HOP-62 NSCLC) was 28.1 µM and the GI50 (NCI-H522 lung) was 3.49 µM. The TGI (NCI-H522 lung) was 25.9 µM, the GI50 (TK-10 renal) was 12.9 µM and the TGI (TK-10 renal) was 26.8 µM. It also gave a GI50 (LOX IMVI melanoma) of 0.0959 µM, a TGI (LOX IMVI melanoma) of 15.6 µM and a GI50 (HT29 colon) of 0.234 µM. For the same compound, the TGI (HT29 colon) was 20.9 µM, the GI50 (HS 578T breast) was 6.08 µM and the TGI (HS 578T breast) was 44 µM. It also gave a GI50 (CAKI-1 renal) of 1.63 µM, a TGI (CAKI-1 renal) of 25.5 µM and a GI50 (OVCAR-5 ovarian) of 9.43 µM. It also gave a TGI (OVCAR-5 ovarian) of 23.6 µM, a GI50 (OVCAR-3 ovarian) of 4.98 µM and a TGI (OVCAR-3 ovarian) of 21.7 µM. The GI50 (K-562 leukemia) was 4.19 µM, the TGI (K-562 leukemia) was 34.2 µM and the GI50 (SNB-75 CNS) was 1.65 µM. For the same compound, the TGI (SNB-75 CNS) was 20.1 µM, the GI50 (SN12C renal) was 9.85 µM and the TGI (SN12C renal) was 24.5 µM. It also gave a GI50 (MDA-MB-435) of 0.156 µM, a TGI (MDA-MB-435) of 14.8 µM and a GI50 (SK-MEL-2 melanoma) of 5.58 µM. The TGI (SK-MEL-2 melanoma) was 23.9 µM, the GI50 (U251 CNS) was 10.9 µM and the TGI (U251 CNS) was 26.7 µM. The GI50 (NCI-H226 lung) was 10.3 µM, the TGI (NCI-H226 lung) was 25.7 µM and the GI50 (786-0 renal) was 12.9 µM. The TGI (786-0 renal) was 28.8 µM, the GI50 (HCT-116 colon) was 1.31 µM and the TGI (HCT-116 colon) was 22.6 µM. The GI50 (OVCAR-4 ovarian) was 4.38 µM, the TGI (OVCAR-4 ovarian) was 31.1 µM and the GI50 (MOLT-4 leukemia) was 0.59 µM. It also gave a TGI (MOLT-4 leukemia) of 23.4 µM, a GI50 (SF-268 CNS) of 14.4 µM and a TGI (SF-268 CNS) of 32.4 µM. For the same compound, the GI50 (OVCAR-8 ovarian) was 11.7 µM, the TGI (OVCAR-8 ovarian) was 58.7 µM and the GI50 (DU-145 prostate) was 13.2 µM. The TGI (DU-145 prostate) was 27.8 µM, the GI50 (T-47D breast) was 2.37 µM and the TGI (T-47D breast) was 29.3 µM. For the same compound, the GI50 (NCI-H460 lung) was 0.466 µM, the TGI (NCI-H460 lung) was 20.6 µM and the GI50 (M14 melanoma) was 0.572 µM. For the same compound, the TGI (M14 melanoma) was 21.6 µM, the GI50 (MDA-MB-231 breast) was 9.29 µM and the TGI (MDA-MB-231 breast) was 24.8 µM. The GI50 (A498 renal) was 4.26 µM, the TGI (A498 renal) was 20.2 µM and the GI50 (SW-620 colon) was 7.63 µM. For the same compound, the TGI (SW-620 colon) was 24.5 µM, the GI50 (MCF7 breast) was 0.0138 µM and the TGI (MCF7 breast) was 17.3 µM. For the same compound, the GI50 (SK-MEL-28 melanoma) was 9.88 µM, the TGI (SK-MEL-28 melanoma) was 22.1 µM and the GI50 (CCRF-CEM leukemia) was 0.0801 µM. For the same compound, the TGI (CCRF-CEM leukemia) was 20.1 µM, the GI50 (RPMI-8226 leukemia) was 2.01 µM and the TGI (RPMI-8226 leukemia) was 22.2 µM. For the same compound, the GI50 (HCT-15 colon) was 6.64 µM, the TGI (HCT-15 colon) was 21.1 µM and the GI50 (SK-MEL-5 melanoma) was 1.94 µM. It also gave a TGI (SK-MEL-5 melanoma) of 17.3 µM, a GI50 (SNB-19 CNS) of 14.8 µM and a TGI (SNB-19 CNS) of 28.8 µM. For the same compound, the GI50 (SR leukemia) was 0.547 µM and the TGI (SR leukemia) was 26.3 µM.
